According to ChEMBL document CHEMBL5120807, “Recent advances in the development of active hybrid molecules in the treatment of cardiovascular diseases” (Bioorg Med Chem, 2022):

Columns and labels:
[1] = Antioxidant activity assessed as ABTS radical scavenging activity; assay type: functional
[2] = Antagonist activity at beta1-adrenoceptor (unknown origin) at 1 uM; set-up: species or system Homo sapiens
[3] = biological target: Dual specificity protein kinase CLK1 (Mus musculus, UniProt P22518); test: Inhibition of mouse recombinant CLK1 expressed in bacterial system using GRSRSRSRSRSR as substrate incubated for 30 mins by ADP-Glo assay kit method
[4] = biological target: Serine/threonine-protein kinase pim-1 (Homo sapiens, UniProt P11309); test: Inhibition of human PIM1 expressed in bacterial system using histone H1 as substrate incubated for 30 mins by ADP-Glo assay kit method
[5] = biological target: Cholinesterase (Homo sapiens) (UniProt P06276); test: Inhibition of BuChE (unknown origin) by Ellman method; settings: concentration not given here
Chain of Cholinesterase (Homo sapiens) (P06276 whole entry): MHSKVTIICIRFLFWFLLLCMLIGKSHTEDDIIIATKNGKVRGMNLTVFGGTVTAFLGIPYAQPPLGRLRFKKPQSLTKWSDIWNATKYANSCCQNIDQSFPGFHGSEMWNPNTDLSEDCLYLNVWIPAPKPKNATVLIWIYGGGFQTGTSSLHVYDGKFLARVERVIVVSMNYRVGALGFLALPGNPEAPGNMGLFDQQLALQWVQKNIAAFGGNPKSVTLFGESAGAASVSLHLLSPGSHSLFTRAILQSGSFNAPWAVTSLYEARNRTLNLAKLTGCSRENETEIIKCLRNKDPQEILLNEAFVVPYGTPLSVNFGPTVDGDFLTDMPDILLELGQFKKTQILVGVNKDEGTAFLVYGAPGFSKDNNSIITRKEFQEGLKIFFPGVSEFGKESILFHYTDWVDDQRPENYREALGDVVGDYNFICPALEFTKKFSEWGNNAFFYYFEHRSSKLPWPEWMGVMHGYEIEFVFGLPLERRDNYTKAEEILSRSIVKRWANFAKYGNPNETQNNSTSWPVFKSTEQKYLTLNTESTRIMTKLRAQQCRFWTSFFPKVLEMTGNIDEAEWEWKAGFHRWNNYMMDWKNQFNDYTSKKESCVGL

Chain of Serine/threonine-protein kinase pim-1 (P11309 whole entry): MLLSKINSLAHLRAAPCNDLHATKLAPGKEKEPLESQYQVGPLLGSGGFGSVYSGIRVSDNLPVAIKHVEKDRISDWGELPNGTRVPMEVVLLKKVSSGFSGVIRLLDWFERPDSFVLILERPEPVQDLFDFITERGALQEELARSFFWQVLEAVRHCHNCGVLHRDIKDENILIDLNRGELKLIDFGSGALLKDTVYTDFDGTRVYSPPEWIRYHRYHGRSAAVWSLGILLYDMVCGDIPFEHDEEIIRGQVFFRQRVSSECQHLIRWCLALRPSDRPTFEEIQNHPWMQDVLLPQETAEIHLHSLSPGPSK
Chain of Dual specificity protein kinase CLK1 (P22518 whole entry): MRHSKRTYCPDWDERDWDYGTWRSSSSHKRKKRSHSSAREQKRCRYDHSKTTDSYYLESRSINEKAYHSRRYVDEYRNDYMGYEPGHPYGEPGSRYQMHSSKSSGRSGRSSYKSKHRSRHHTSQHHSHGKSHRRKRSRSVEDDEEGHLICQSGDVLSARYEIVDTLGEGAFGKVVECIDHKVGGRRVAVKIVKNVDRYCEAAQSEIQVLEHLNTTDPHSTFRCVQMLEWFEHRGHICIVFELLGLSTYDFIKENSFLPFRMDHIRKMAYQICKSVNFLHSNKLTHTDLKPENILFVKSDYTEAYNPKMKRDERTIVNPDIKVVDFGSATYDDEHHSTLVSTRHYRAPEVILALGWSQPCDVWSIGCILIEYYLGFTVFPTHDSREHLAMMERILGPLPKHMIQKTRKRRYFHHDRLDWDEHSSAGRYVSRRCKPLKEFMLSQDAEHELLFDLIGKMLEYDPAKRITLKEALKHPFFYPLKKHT

Compound | IC50 [3] [nM] | IC50 [4] [nM] | further results
CCCCCCCCCCCCCCCCOC(=O)C1=C(C)NC(C)=C(C(=O)OCCCCCCCCCCCCCCCC)C1c1ccccc1[N+](=O)[O-] |  |  | IC50 [1]: 2450 nM
COc1cc2c(cc1OC)CC(=O)N(CCCN(C)C[C@@H](O)COc1ccccc1C)CC2 |  |  | IC50 [2]: 10400 nM
NN1C(=O)/C(=C2\C(=O)Nc3ccc(Br)cc32)SC1=S | 4670 | 1800 | 
CN1C(=O)/C(=C2/SC(=S)N(N)C2=O)c2cc(Br)ccc21 | > 10000 | 770 | 
COc1cc(/C=C/C(=O)OCCOCCNC(=O)/C=C/c2ccc(OC(C)=O)c(OC(C)=O)c2)ccc1OC(C)=O |  |  | inhibition [5]: 95%
